ChEMBL document CHEMBL5131517 (ACS Med Chem Lett, 2022)

Tests used:
[1] = biological target: D(3) dopamine receptor (Homo sapiens, UniProt P35462); test: Binding affinity to D3 receptor (unknown origin) assessed as inhibition constant
[2] = biological target: Sodium-dependent serotonin transporter (Homo sapiens, UniProt P31645); test: Binding affinity to SERT receptor (unknown origin) assessed as inhibition constant
[3] = biological target: 5-hydroxytryptamine receptor 3A (Homo sapiens, UniProt P46098); test: Binding affinity to 5HT3 receptor (unknown origin) assessed as inhibition constant
[4] = biological target: Alpha-2C adrenergic receptor (Homo sapiens, UniProt P18825); test: Binding affinity to alpha2c (unknown origin) assessed as inhibition constant
[5] = biological target: 5-hydroxytryptamine receptor 1B (Homo sapiens, UniProt P28222); test: Inhibition of 5HT1B receptor (unknown origin); conditions: concentration not given here
[6] = biological target: Sigma intracellular receptor 2 (Homo sapiens, UniProt Q5BJF2); test: Binding affinity to sigma 2 receptor (unknown origin) assessed as inhibition constant
[7] = biological target: 5-hydroxytryptamine receptor 1E (Homo sapiens, UniProt P28566); test: Inhibition of 5HT1E receptor (unknown origin); conditions: concentration not given here
[8] = biological target: Sigma non-opioid intracellular receptor 1 (Homo sapiens, UniProt Q99720); test: Inhibition of sigma 1 receptor (unknown origin); conditions: concentration not given here
Chain of Sigma non-opioid intracellular receptor 1 (Q99720 whole entry): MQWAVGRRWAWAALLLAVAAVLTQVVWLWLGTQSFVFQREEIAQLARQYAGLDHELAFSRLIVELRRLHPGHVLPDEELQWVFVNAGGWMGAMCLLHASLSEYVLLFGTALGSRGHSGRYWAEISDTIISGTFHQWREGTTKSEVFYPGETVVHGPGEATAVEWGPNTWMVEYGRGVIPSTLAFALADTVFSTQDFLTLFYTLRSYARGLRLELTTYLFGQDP

Chain of 5-hydroxytryptamine receptor 3A (P46098 whole entry): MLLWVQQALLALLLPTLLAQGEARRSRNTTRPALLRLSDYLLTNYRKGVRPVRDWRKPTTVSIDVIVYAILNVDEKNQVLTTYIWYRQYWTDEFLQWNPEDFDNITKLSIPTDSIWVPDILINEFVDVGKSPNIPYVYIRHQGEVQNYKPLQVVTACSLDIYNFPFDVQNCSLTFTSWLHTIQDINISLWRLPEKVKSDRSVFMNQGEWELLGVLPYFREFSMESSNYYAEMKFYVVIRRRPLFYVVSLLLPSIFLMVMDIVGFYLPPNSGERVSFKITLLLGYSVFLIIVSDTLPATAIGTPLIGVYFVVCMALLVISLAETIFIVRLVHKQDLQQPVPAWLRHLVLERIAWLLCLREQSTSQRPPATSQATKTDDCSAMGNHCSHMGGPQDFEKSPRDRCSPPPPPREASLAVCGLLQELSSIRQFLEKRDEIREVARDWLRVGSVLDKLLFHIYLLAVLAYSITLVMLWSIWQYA
Chain of Sigma intracellular receptor 2 (Q5BJF2 whole entry): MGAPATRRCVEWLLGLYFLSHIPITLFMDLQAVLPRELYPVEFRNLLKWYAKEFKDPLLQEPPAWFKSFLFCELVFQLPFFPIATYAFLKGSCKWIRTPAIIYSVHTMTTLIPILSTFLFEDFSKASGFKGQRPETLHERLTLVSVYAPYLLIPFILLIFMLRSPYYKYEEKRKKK
Chain of Alpha-2C adrenergic receptor (P18825 whole entry): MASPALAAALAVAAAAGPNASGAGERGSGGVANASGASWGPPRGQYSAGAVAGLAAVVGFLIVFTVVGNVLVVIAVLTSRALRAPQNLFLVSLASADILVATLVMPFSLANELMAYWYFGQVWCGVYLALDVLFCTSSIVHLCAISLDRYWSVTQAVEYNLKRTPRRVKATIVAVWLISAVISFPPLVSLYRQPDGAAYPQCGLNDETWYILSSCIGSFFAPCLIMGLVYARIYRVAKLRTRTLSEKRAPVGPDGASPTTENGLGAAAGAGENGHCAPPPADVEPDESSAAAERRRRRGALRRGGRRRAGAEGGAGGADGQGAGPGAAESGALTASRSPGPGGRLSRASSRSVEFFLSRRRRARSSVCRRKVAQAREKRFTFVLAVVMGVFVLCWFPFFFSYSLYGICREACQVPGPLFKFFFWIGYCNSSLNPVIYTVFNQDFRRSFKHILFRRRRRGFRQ
Chain of D(3) dopamine receptor (P35462 whole entry): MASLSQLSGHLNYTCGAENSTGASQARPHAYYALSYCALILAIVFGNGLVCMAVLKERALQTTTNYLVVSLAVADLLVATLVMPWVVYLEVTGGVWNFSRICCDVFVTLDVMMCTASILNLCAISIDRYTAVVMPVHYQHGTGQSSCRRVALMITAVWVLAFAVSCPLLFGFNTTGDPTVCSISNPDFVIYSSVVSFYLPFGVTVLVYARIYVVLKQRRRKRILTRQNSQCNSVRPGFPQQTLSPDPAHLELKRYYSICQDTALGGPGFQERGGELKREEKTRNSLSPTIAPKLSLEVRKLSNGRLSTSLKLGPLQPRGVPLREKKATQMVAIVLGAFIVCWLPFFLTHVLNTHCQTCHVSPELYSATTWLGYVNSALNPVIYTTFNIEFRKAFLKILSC
Chain of 5-hydroxytryptamine receptor 1E (P28566 whole entry): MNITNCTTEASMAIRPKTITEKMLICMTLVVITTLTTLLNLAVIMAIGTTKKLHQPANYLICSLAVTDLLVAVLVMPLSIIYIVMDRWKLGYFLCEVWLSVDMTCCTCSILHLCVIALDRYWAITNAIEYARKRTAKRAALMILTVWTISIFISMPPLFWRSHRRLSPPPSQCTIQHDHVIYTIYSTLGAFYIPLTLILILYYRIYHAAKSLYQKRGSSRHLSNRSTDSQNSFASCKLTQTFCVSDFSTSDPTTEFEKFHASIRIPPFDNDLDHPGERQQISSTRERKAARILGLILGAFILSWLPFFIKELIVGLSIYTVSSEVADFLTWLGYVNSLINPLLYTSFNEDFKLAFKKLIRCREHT
Chain of 5-hydroxytryptamine receptor 1B (P28222 whole entry): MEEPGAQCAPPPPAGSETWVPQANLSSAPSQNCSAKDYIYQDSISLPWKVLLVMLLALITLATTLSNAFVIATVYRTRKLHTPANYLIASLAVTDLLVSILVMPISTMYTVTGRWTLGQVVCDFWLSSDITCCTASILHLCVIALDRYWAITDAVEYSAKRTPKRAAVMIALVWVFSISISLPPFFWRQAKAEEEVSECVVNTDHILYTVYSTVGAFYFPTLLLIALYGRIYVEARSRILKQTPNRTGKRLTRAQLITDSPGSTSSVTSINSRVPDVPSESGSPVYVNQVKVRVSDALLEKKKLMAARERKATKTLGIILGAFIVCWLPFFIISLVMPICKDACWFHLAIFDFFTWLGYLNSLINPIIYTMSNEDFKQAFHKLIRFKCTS

COc1ccc(C2NCCc3c2[nH]c2ccc(Cl)cc32)c(O)c1 (stereo not given)
Ki [1]: 1250 nM | inhibition ([2]; filed as agonist, concentration not given here): < 50% | Ki [3]: 2790 nM

COc1cc(OC)c(C2NCCc3c2[nH]c2ccc(Cl)cc32)cc1OC (stereo not given)
Ki [3]: 2780 nM

COc1cc(OC)c(C2NCCc3c2[nH]c2ccc(F)cc32)cc1OC (stereo not given)
Ki [4]: 964 nM | inhibition [5]: < 50% | Ki [6]: 2330 nM | inhibition [7]: < 50%

COc1ccc(C2NCCc3c2[nH]c2ccc(F)cc32)c(O)c1 (stereo not given)
Ki [2]: 1840 nM | inhibition [8]: < 50%
